Laboratory results as given in patent publication US9206186B2, “2-phenoxy- and 2-phenylsulfonamide derivatives with CCR3 antagonistic activity for the treatment of inflammatory or immunological disorders” (AXIKIN PHARMACEUTICALS, INC., priority 2003, dated 2015).
pIC50: −log10 of the molar value. Structures can show the parent of a compound that is named as a salt.

Target: T1, Human CCR3 (Homo sapiens, UniProt P51677)
T1 construct: The cloned CCR3 cDNA was constructed with pcDNA3 vector and transfected into a K562 cell line; expressed in transfected cells
T1 sequence (P51677 1-355): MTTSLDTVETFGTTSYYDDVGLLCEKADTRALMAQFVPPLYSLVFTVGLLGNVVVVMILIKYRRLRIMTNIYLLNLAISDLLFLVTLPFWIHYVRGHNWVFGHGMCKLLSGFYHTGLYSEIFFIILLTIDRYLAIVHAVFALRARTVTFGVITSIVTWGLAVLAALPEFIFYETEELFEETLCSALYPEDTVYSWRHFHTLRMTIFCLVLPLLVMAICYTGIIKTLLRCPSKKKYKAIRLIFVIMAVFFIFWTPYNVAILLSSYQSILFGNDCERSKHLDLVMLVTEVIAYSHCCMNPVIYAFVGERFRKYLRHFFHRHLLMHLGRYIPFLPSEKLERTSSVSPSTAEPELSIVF
Assay: Receptor binding assay (RBA), [125I]-eotaxin on human CCR3-transformed K562 cells
Details: compounds of about 40 to 90% purity, read-out: Activity grade CCR3
Experimental: [Determination of IC50 Values of Compounds in Receptor Binding Assay]
• Human CCR3-transformed K562 cells were used. The cloned CCR3 cDNA was constructed with pcDNA3 vector and transfected into a K562 cell line. The human CCR3-transformed K562 cells were maintained in RPMI-1640 (Cat.#22400-089, Life Technologies) supplemented with 10% FCS (Cat.#A-1115-L, Hyclone), 55 μM 2-mercaptoethanol (Cat.#21985-023, Life Technologies), 1 mM sodium pyruvate (Cat.#11360-070, Life Technologies), 100 units/ml of penicillin G and 100 μg/ml of streptomycin (Cat.#15140-122, Life Technologies), and 0.4 mg/ml of Geneticin (Cat.#10131-035, Life Technologies) (hereinafter called “culture medium”). Before the receptor binding assay, cells were pretreated with 5 mM sodium butyrate (Cat.#193-01522, Wako)-containing the culture medium (2×10^5 cells/ml) for 20-24 hours to increase the expression of CCR3. (2) Receptor Binding Assay • Butyrate-pretreated cells, suspended in binding buffer (25 mM HEPES pH 7.6, 1 mM CaCl2, 5 mM MgCl2, 0.5% BSA, 0.1% NaN3) at a cell density of 2×10^6 cells/ml, were added into 60 μl/well in the 96-well round bottom polypropylene plate (Cat.#3365, Costar). Compounds, diluted with the binding buffer (4-times higher concentration of the final concentration), were added into 30 μl/well in the polypropylene plate. [^125I]-labeled human eotaxin (Cat.#IM290, Amersham Pharmacia Biotech), diluted with the binding buffer at the concentration of 0.4 nM (final concentration; 0.1 nM), was added into 30 μl/well in the polypropylene plate. Total 120 μl/well of binding reaction mixture (60 μl/well of cell suspension, 30 μl/well of compound solution, and 30 μl/well of [^125I]-labeled eotaxin) were incubated in the polypropylene plate for 1 hour at room temperature after the incubation, 100 μl/well of the reaction mixture was transferred to a filtration plate (Cat.#MAFB-N0B, Millipore), and washed with the washing buffer (25 mM HEPES pH 7.6, 1 mM CaCl2, 5 mM MgCl2, 0.5% BSA, 0.1% NaN3, 0.5 M NaCl) twice. The 96-well filtration plate was pretreated with 100 μl/well of 0.5% polyethylenimine (Cat.#P-3143, Sigma) for 2-4 hours at room temperature and washed with the washing buffer twice before use. The non-specific binding was determined by parallel incubation in the presence of 500 nM of non-labeled eotaxin (Cat.#23209, Genzyme Techne). The radioactivities remained on the filter were measured by liquid scintillation counter (TopCount™, Packard) after an addition of 45 μl/well of scintillant (Microscint20, Cat.#6013621, Packard). The inhibition percent at each concentration of compound was calculated, and IC50 values were determined from the inhibition curve. [Determination of IC50 Values of Compounds in Calcium Mobilization Assay] (1) Cell • Human CCR3-transformed K562 cells were used. The human CCR3-transformed K562 cells were maintained in RPMI-1640 supplemented with 10% FCS, 55 μM 2-mercaptoethanol (Cat.#21985-023, Life Technologies), 1 mM sodium pyruvate, 100 units/ml of penicillin G and 100 μg/ml of streptomycin, and 0.4 mg/ml of Geneticin. Before the calcium mobilization assay, cells were pretreated with 5 mM sodium butyrate-containing the culture medium (2×10^5 cells/ml) for 20-24 hours to increase the expression of CCR3. (2) Calcium Mobilization Assay • Butyrate-pretreated cells were loaded with Fluo-3AM (Cat.#F-1242, Molecular Probes) in loading buffer (Hanks' solution Cat.#05906 Nissui, 20 mM HEPES pH 7.6, 0.1% BSA, 1 mM probenecid Cat.#P-8761 Sigma, 1 μM Fluo-3AM, 0.01% pluronic F-127 Cat.#P-6866 Molecular Probes) at a cell density of 1×10^7 cells/ml. Then, cells were washed with calcium assay buffer (Hanks' solution Cat.#05906 Nissui, 20 mM HEPES pH 7.6, 0.1% BSA, 1 mM Probenecid Cat.#P-8761 Sigma). The cell suspension (3.3×10^6 cells/ml) was added into 60 μl/well in the 96-well clear bottom black plate (Cat.#3904, Costar). […]

| Compound | pIC50 |
| --- | --- |
| CN(C)CCN(CCN1C(=O)CCC1=O)S(=O)(=O)c1cc(C#N)ccc1Oc1cc(Cl)cc(Cl)c1 [Example 1-2, 5-cyano-2-(3,5-dichloro-phenoxy)-N-(2-dimethylamino-ethyl)-N-[2-(2,5-dioxo-pyrrolidin-1-yl)-ethyl]-benzenesulfonamide] | > 7.00 |
| N#Cc1ccc(Oc2cc(Cl)cc(Cl)c2)c(S(=O)(=O)N2CCN[C@@H](Cc3c[nH]c4ccccc34)C2)c1 [Example 1-3, 4-(3,5-dichloro-phenoxy)-3-[(3S)-(1H-indol-3-ylmethyl)-piperazine-1-sulfonyl]-benzonitrile] | > 7.00 |
| N#Cc1ccc(Oc2cc(Cl)cc(Cl)c2)c(S(=O)(=O)N2CCNCC2Cn2cncn2)c1 (stereo not drawn) [Example 1-4, 4-(3,5-dichlorophenoxy)-3-{[2-(1H-1,2,4-triazol-1-ylmethyl)-1-piperazinyl]sulfonyl}benzonitrile hydrochloride] | > 7.00 |
| N#Cc1ccc(Oc2cc(Cl)cc(Cl)c2)c(S(=O)(=O)N2CC3CCN(Cc4ccccc4)C3C2)c1 (stereo not drawn) [Example 1-6] | > 7.00 |
| CS(=O)(=O)NCC1CNCCN1S(=O)(=O)c1cc(C#N)ccc1Oc1cc(Cl)cc(Cl)c1 (stereo not drawn) [Example 1-9] | > 7.00 |
| CC(=O)NCC1CNCCN1S(=O)(=O)c1cc(C#N)ccc1Oc1cc(Cl)cc(Cl)c1 (stereo not drawn) [Example 1-10] | > 7.00 |
| N#Cc1ccc(Oc2cc(Cl)cc(Cl)c2)c(S(=O)(=O)N2CCNC[C@@H]2Cc2c[nH]c3ccccc23)c1 [Example 1-26] | > 7.00 |
| N#Cc1ccc(Oc2cc(Cl)cc(Cl)c2)c(S(=O)(=O)N2CCNCC2CN2C(=O)CCC2=O)c1 (stereo not drawn) [Example 1-27] | > 7.00 |
| CS(=O)(=O)NCC1CN(S(=O)(=O)c2cc(C#N)ccc2Oc2cc(Cl)cc(Cl)c2)CCCN1 (stereo not drawn) [Example 1-28] | > 7.00 |
| CS(=O)(=O)NCC1CNCCCN1S(=O)(=O)c1cc(C#N)ccc1Oc1cc(Cl)cc(Cl)c1.Cl (stereo not drawn) [Example 1-29] | > 7.00 |
| CC(=O)c1ccc(Oc2cc(Cl)cc(Cl)c2)c(S(=O)(=O)N2CCNCC2)c1 [Example 1-31] | > 7.00 |
| Cl.N#Cc1ccc(Oc2cc(Cl)cc(Cl)c2)c(S(=O)(=O)N2CCNC(Cn3cncn3)C2)c1 (stereo not drawn) [Example 1-37] | > 7.00 |
| N#Cc1ccc(Oc2cc(Cl)cc(Cl)c2)c(S(=O)(=O)N(CCN2CCCC2)C2CCCC2)c1 [Example 1-42] | 6.30 to 7.00 |
| N#Cc1ccc(Oc2cc(Cl)cc(Cl)c2)c(S(=O)(=O)N2CCNC(CN3C(=O)CCC3=O)C2)c1 (stereo not drawn) [Example 1-43] | > 7.00 |
| N#Cc1ccc(Oc2cc(Cl)cc(Cl)c2)c(S(=O)(=O)N2CCC(N3CCCC3)C(CN3C(=O)CCC3=O)C2)c1 (stereo not drawn) [Example 1-44] | > 7.00 |

Results, then the molecule that gave them:

| pIC50 | Compound |
| --- | --- |
| > 7.00 | N#Cc1ccc(Oc2cc(Cl)cc(Cl)c2)c(S(=O)(=O)N[C@H]2CN3CCC2CC3)c1 [Example 1-1, N—(R)-(+)-(1-aza-bicyclo[2.2.2]oct-3-yl)-5-cyano-2-(3,5-dichloro-phenoxy)-benzenesulfonamide] |
| < 6.30 | N#Cc1ccc(Oc2cc(Cl)cc(Cl)c2)c(S(=O)(=O)N2CCCCC2)c1 [Example 1-5] |
| > 7.00 | CS(=O)(=O)NCC1CN(S(=O)(=O)c2cc(C#N)ccc2Oc2cc(Cl)cc(Cl)c2)CCN1 (stereo not drawn) [Example 1-7] |
| > 7.00 | CC(=O)NCC1CN(S(=O)(=O)c2cc(C#N)ccc2Oc2cc(Cl)cc(Cl)c2)CCN1 (stereo not drawn) [Example 1-8] |
| 6.30 to 7.00 | N#Cc1ccc(Oc2cc(Cl)cc(Cl)c2)c(S(=O)(=O)N2CCC(N3C[C@H](O)[C@@H](O)C3)CC2)c1 [Example 1-11] |
| 6.30 to 7.00 | COC(=O)C1CN(S(=O)(=O)c2cc(C#N)ccc2Oc2cc(Cl)cc(Cl)c2)CCCN1 (stereo not drawn) [Example 1-12] |
| 6.30 to 7.00 | COC(=O)[C@@H]1C[C@H](N2CCCC2)CN1S(=O)(=O)c1cc(C#N)ccc1Oc1cc(Cl)cc(Cl)c1 [Example 1-13] |
| > 7.00 | N#Cc1ccc(Oc2cc(Cl)cc(Cl)c2)c(S(=O)(=O)N2CC[C@H](NCCO)C2)c1 [Example 1-16] |
| > 7.00 | COC(=O)C1CNCCCN1S(=O)(=O)c1cc(C#N)ccc1Oc1cc(Cl)cc(Cl)c1 (stereo not drawn) [Example 1-22] |
| > 7.00 | N#Cc1ccc(Oc2cc(Cl)cc(Cl)c2)c(S(=O)(=O)N[C@@H]2CN3CCC2CC3)c1 [Example 1-32] |
| > 7.00 | N#Cc1ccc(Oc2cc(Cl)cc(Cl)c2)c(S(=O)(=O)N2CCC(N3CCC[C@H]3C(=O)O)CC2)c1 [Example 1-33] |
| > 7.00 | CC(C)(O)[C@@H]1CCCN1C1CCN(S(=O)(=O)c2cc(C#N)ccc2Oc2cc(Cl)cc(Cl)c2)CC1 [Example 1-34] |
| 6.30 to 7.00 | N#Cc1ccc(Oc2cc(Cl)cc(Cl)c2)c(S(=O)(=O)N2CCCCC2CN2CCC(O)C2)c1 (stereo not drawn) [Example 1-35] |
| > 7.00 | N#Cc1ccc(Oc2cc(Cl)cc(Cl)c2)c(S(=O)(=O)N2CCNC(Cn3ncnn3)C2)c1 (stereo not drawn) [Example 1-36] |
| 6.30 to 7.00 | CCN1CCCN(S(=O)(=O)c2cc(C#N)ccc2Oc2cc(Cl)cc(Cl)c2)C(C(=O)OC)C1 (stereo not drawn) [Example 1-39] |
| > 7.00 | N#Cc1ccc(Oc2cc(Cl)cc(Cl)c2)c(S(=O)(=O)N2CCC(N3CCC[C@H]3CO)CC2)c1 [Example 1-45] |
| > 7.00 | N#Cc1ccc(Oc2cc(Cl)cc(Cl)c2)c(S(=O)(=O)N2CCC[C@H]2CN2CCC[C@H]2CO)c1 [Example 1-46] |
| < 6.30 | N#Cc1ccc(Oc2cc(Cl)cc(Cl)c2)c(S(=O)(=O)C2CCNCC2)c1 [Example 2-1, 4-(3,5-Dichloro-phenoxy)-3-(piperidine-4-sulfonyl)-benzonitrile] |
